From ChEMBL document CHEMBL1764997, “(Z)-3-butylidenephthalide from Ligusticum porteri , an α-glucosidase inhibitor” (J Nat Prod, 2011) come the findings set out here.

Activity calls are given as the source filed them. The calls are words filed in the database; no cut-off is given here.

Test [1] concerns Mus musculus. As to the kind of experiment: Antidiabetic activity in streptozotocin-induced diabetic ICR mouse assessed as change in blood glucose level at 31.2 mg/kg after 1.5 hrs by oral glucose tolerance test (RVb= 0.005 %). The class given is functional.
Test [2] has as its system Mus musculus. As to the kind of experiment: Antidiabetic activity in streptozotocin-induced diabetic ICR mouse assessed as change in blood glucose level at 10 mg/kg after 2 hrs by oral glucose tolerance test (RVb= -12.9 %). The class given is functional.
Test [3] concerns Mus musculus. As to the kind of experiment: Antihyperglycemic activity in ICR mouse assessed as change in blood glucose level at 10 mg/kg after 2 hrs by oral glucose tolerance test (RVb= -12 %). The test is classed as functional.
For test [4], the system named is Mus musculus. As to the kind of experiment: Antidiabetic activity in streptozotocin-induced diabetic ICR mouse assessed as change in blood glucose level at 56.2 mg/kg after 1.5 hrs by oral glucose tolerance test (RVb= 0.005 %). The test is classed as functional.
Test [5] deals with Mus musculus. The test can be described thus: Antidiabetic activity in streptozotocin-induced diabetic ICR mouse assessed as change in blood glucose level at 10 mg/kg after 1.5 hrs by oral glucose tolerance test (RVb= 0.005 %). The class given is functional.
The test system of test [6] is Mus musculus. The test can be described thus: Antidiabetic activity in streptozotocin-induced diabetic ICR mouse assessed as change in blood glucose level at 31.2 mg/kg after 0.5 hr by oral glucose tolerance test (RVb= 51.9 %). The test is classed as functional.
For test [7], the species on record is Mus musculus. As to the kind of experiment: Antidiabetic activity in streptozotocin-induced diabetic ICR mouse assessed as decrease in blood glucose levels by oral glucose tolerance test.
Test [8] has as its system Mus musculus. The test can be described thus: Antihyperglycemic activity in ICR mouse assessed as change in blood glucose level at 20 mg/kg after 2 hrs by oral glucose tolerance test (RVb= -12 %). The test is classed as functional.
For test [9], the system named is Mus musculus. The test can be described thus: Antidiabetic activity in streptozotocin-induced diabetic ICR mouse assessed as change in blood glucose level at 56.2 mg/kg after 2 hrs by oral glucose tolerance test (RVb= -12.9 %). The class given is functional.
The test system of test [10] is Mus musculus. As to the kind of experiment: Antidiabetic activity in streptozotocin-induced diabetic ICR mouse assessed as change in blood glucose level at 10 mg/kg after 0.5 hr by oral glucose tolerance test (RVb= 51.9 %). The test is classed as functional.
Test [11] concerns Mus musculus. The test can be described thus: Antihyperglycemic activity in ICR mouse assessed as change in blood glucose level at 10 mg/kg after 0.5 hr by oral glucose tolerance test (RVb= 59 %). The test is classed as functional.
In test [12] the test system is Mus musculus. The test can be described thus: Antidiabetic activity in streptozotocin-induced diabetic ICR mouse assessed as change in blood glucose level at 56.2 mg/kg after 1 hr by oral glucose tolerance test (RVb= 10.3 %). The test is classed as functional.
Test [13] concerns Mus musculus. The test can be described thus: Antihyperglycemic activity in ICR mouse assessed as change in blood glucose level at 20 mg/kg after 1.5 hrs by oral glucose tolerance test (RVb= 2.5 %). The class given is functional.
For test [14], the system named is Mus musculus. As to the kind of experiment: Antihyperglycemic activity in ICR mouse assessed as change in blood glucose level at 10 mg/kg after 1.5 hrs by oral glucose tolerance test (RVb= 2.5 %). The class given is functional.
Test [15] deals with Mus musculus. As to the kind of experiment: Antidiabetic activity in streptozotocin-induced diabetic ICR mouse assessed as change in blood glucose level at 10 mg/kg after 1 hr by oral glucose tolerance test (RVb= 10.3 %). The class given is functional.
Test [16] has as its system Mus musculus. As to the kind of experiment: Antidiabetic activity in streptozotocin-induced diabetic ICR mouse assessed as change in blood glucose level at 31.2 mg/kg after 2 hrs by oral glucose tolerance test (RVb= -12.9 %). The class given is functional.
The target of test [17] is Alpha-glucosidase MAL62 (Saccharomyces cerevisiae) (UniProt P07265). The test can be described thus: Inhibition of yeast alpha-glucosidase assessed as inhibition of p-nitrophenyl-alpha-D-glucopyranoside substrate hydrolysis after 35 mins by spectroscopy.
The test system of test [18] is Mus musculus. As to the kind of experiment: Antidiabetic activity in streptozotocin-induced diabetic ICR mouse assessed as change in blood glucose level at 31.2 mg/kg after 1 hr by oral glucose tolerance test (RVb= 10.3 %). The test is classed as functional.
Test [19] relates to Mus musculus. As to the kind of experiment: Antihyperglycemic activity in ICR mouse assessed as change in blood glucose level at 20 mg/kg after 0.5 hr by oral glucose tolerance test (RVb= 59 %). The test is classed as functional.
The subject of test [20] is Mus musculus. As to the kind of experiment: Antidiabetic activity in streptozotocin-induced diabetic ICR mouse assessed as change in blood glucose level at 56.2 mg/kg after 0.5 hr by oral glucose tolerance test (RVb= 51.9 %). The test is classed as functional.
Test [21] has as its system Mus musculus. The test can be described thus: Antihyperglycemic activity in ICR mouse assessed as change in blood glucose level at 10 mg/kg after 1 hr by oral glucose tolerance test (RVb= 1.5 %). The test is classed as functional.
The test system of test [22] is Mus musculus. The test can be described thus: Antihyperglycemic activity in ICR mouse assessed as change in blood glucose level at 20 mg/kg after 1 hr by oral glucose tolerance test (RVb= 1.5 %). The test is classed as functional.
Test [23] deals with Mus musculus. As to the kind of experiment: Antihyperglycemic activity in ICR mouse assessed as change in blood glucose level at 56.2 mg/kg at 0.5 hr by oral glucose tolerance test (RVb= 59 %). The test is classed as functional.
The subject of test [24] is Mus musculus. As to the kind of experiment: Antihyperglycemic activity in ICR mouse assessed as change in blood glucose level at 56.2 mg/kg at 1.5 hrs by oral glucose tolerance test (RVb= 2.5 %). The test is classed as functional.
In test [25] the test system is Mus musculus. As to the kind of experiment: Antihyperglycemic activity in ICR mouse assessed as change in blood glucose level at 31.2 mg/kg at 1 hr by oral glucose tolerance test (RVb= 1.5 %). The test is classed as functional.
The test system of test [26] is Mus musculus. The test can be described thus: Antihyperglycemic activity in ICR mouse assessed as change in blood glucose level at 31.2 mg/kg at 2 hrs by oral glucose tolerance test (RVb= -12 %). The class given is functional.
The test system of test [27] is Mus musculus. The test can be described thus: Antihyperglycemic activity in ICR mouse assessed as change in blood glucose level at 56.2 mg/kg at 2 hrs by oral glucose tolerance test (RVb= -12 %). The class given is functional.
Test [28] deals with Mus musculus. The test can be described thus: Antihyperglycemic activity in ICR mouse assessed as change in blood glucose level at 31.2 mg/kg after 0.5 hr by oral glucose tolerance test (RVb= 59 %). The test is classed as functional.
For test [29], the system named is Mus musculus. The test can be described thus: Antihyperglycemic activity in ICR mouse assessed as change in blood glucose level at 31.2 mg/kg at 1.5 hrs by oral glucose tolerance test (RVb= 2.5 %). The test is classed as functional.
In test [30] the test system is Mus musculus. As to the kind of experiment: Antihyperglycemic activity in ICR mouse assessed as change in blood glucose level at 56.2 mg/kg at 1 hr by oral glucose tolerance test (RVb= 1.5 %). The class given is functional.

Sequence of Alpha-glucosidase MAL62 (Saccharomyces cerevisiae) (P07265 whole entry): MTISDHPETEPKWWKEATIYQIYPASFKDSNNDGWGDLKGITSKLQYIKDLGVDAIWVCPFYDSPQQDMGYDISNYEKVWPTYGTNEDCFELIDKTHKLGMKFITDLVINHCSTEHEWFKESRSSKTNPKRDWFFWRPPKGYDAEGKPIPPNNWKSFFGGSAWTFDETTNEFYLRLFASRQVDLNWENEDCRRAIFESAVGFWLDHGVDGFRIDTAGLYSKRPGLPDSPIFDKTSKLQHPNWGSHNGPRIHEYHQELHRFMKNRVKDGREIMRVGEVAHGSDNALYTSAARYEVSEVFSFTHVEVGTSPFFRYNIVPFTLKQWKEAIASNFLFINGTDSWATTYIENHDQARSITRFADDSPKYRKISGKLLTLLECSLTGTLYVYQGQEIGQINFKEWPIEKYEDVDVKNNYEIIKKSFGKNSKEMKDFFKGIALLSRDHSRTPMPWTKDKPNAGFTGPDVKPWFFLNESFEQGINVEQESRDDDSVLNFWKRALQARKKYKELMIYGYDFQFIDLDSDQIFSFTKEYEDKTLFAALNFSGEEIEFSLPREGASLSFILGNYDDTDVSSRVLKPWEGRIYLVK

On to `CCC/C=C1\OC(=O)C2=C1CCC=C2` [LIGUSTILIDE], for which the Activity in the test on Mus musculus [1] is reported as -12%; in the test with Mus musculus [2], -15.6%; in the test on Mus musculus [3], -8%; in the test on Mus musculus [4], 2.1%; in the test on Mus musculus [5], -19%; in the test with Mus musculus [6] it was 17%. The Activity result in the test listed under Mus musculus [7] was “Dose-dependent effect”; with Mus musculus [8], -16%; in the test with Mus musculus [9], 6.5%; in the test with Mus musculus [10] it was 13%; in the test with Mus musculus [11] it was 42%; in the test on Mus musculus [12] it was 17.1%. For the same compound, the Activity is -3.5% in the test with Mus musculus [13]; 7% in the test with Mus musculus [14]; -14% in the test with Mus musculus [15]; -10% with Mus musculus [16]; -6.3% in the test with Mus musculus [18]; 40% with Mus musculus [19]. For the same compound, the Activity is listed as 25% with Mus musculus [20], 25% in the test on Mus musculus [21] and 14% in the test on Mus musculus [22]. Further, the result in [17] was inactive.
For `CCC/C=C1\OC(=O)C2=C[C@H]3CC[C@]21C1C2=C(CC[C@H]13)/C(=C\CCC)OC2=O` (stereo partly specified), the Activity in the test on Mus musculus [1] is reported as 23%; with Mus musculus [2] it was -5.5%; in the test with Mus musculus [4] it was 25%; with Mus musculus [23] it was 41%; with Mus musculus [5], 5.7%; with Mus musculus [6] it was 44%. Also, the Activity is 8.9% with Mus musculus [9]; 32% in the test with Mus musculus [10]; -13% in the test on Mus musculus [24]; -28% in the test with Mus musculus [25]; -50% with Mus musculus [26]; 52% in the test with Mus musculus [12]. The Activity in the test on Mus musculus [27] is reported as -27%; with Mus musculus [15] it was 5.7%; in the test on Mus musculus [28] it was 3.8%; in the test with Mus musculus [16], 8.8%; in the test with Mus musculus [29], -35%; with Mus musculus [18] it was 32%. The Activity is recorded as -3.8% with Mus musculus [30] and 57% in the test with Mus musculus [20]. In addition, the outcome in test [17] was inactive.
On to `COc1ccc(Cl)cc1C(=O)NCCc1ccc(S(=O)(=O)NC(=O)NC2CCCCC2)cc1` [GLYBURIDE], for which the Activity is listed as -21.5% with Mus musculus [2]; -68% in the test with Mus musculus [3]; -10% in the test on Mus musculus [5]; 42% in the test with Mus musculus [10]; -42% with Mus musculus [11]; -69% in the test with Mus musculus [14]. For the same compound, the Activity with Mus musculus [15] is reported as 3.8%; in the test on Mus musculus [21] it was -65%.
